In patent US20250221410A1, “SUBSTITUTED 2-C-AZINES AND SALTS THEREOF, AND USE THEREOF AS HERBICIDAL ACTIVE SUBSTANCES” (BAYER AKTIENGESELLSCHAFT, priority 2022, published 2025):

What was measured:
VIOTR: Viola tricolor [1] = experiment: Pre-emergence herbicide efficacy at 80 g/ha, VIOTR; assay type: in vivo; settings: scored visually after about 3 weeks
Source text: (§1) Seeds of monocotyledonous and dicotyledonous weed plants and crop plants were placed in plastic or organic planting pots and covered with soil. The compounds of the invention, formulated in the form of wettable powders (WP) or as emulsion concentrates (EC), were then applied to the surface of the covering soil as aqueous suspension or emulsion with addition of 0.5% additive at a water application rate equivalent to 600 l/ha. After the treatment, the pots were placed in a greenhouse and kept under good growth conditions for the test plants. After about 3 weeks, the efficacy of the preparations was scored visually in comparison with untreated controls as percentages. For example, 100% activity=the plants have died, 0% activity=like control plants. Tables D1 to D12 below show the effects of selected compounds of the general formula (I) according to Table 1 on various harmful plants and an application rate corresponding to 80 g/ha, which were obtained by the experimental procedure mentioned above.

POLCO [2] = experiment: Post-emergence herbicidal efficacy at 80 g/ha, POLCO; assay type: in vivo, Polygonum convolvulus; settings: visual rating about 3 weeks after treatment vs untreated controls
Description: (§2) Seeds of monocotyledonous and dicotyledonous weeds and crop plants were placed in sandy loam in plastic or organic planting pots, covered with soil and cultivated in a greenhouse under controlled growth conditions. 2 to 3 weeks after sowing, the test plants were treated at the one-leaf stage. The compounds of the invention, formulated in the form of wettable powders (WP) or as emulsion concentrates (EC), were then sprayed onto the green parts of the plants as aqueous suspension or emulsion with addition of 0.5% additive at a water application rate of 600 l/ha (converted). After the test plants had been kept in the greenhouse under optimum growth conditions for about 3 weeks, the activity of the preparations was rated visually in comparison to untreated controls. For example, 100% activity=the plants have died, 0% activity=like control plants. Tables B1 to B10 below show the effects of selected compounds of the general formula (I) according to Table 1 on various harmful plants and an application rate corresponding to 80 g/ha, which were obtained by the experimental procedure mentioned above.

VERPE: Veronica persica = experiment: Post-emergence herbicidal efficacy at 1280 g/ha, VERPE; assay type: in vivo; settings: visual rating about 3 weeks after treatment vs untreated controls
Summary of the method: (§3)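 Plants treated 2–3 weeks post-sowing, one-leaf stage, foliar spray of WP or EC preparations with 0.5% additive at a water rate equivalent to 600 L/ha. Kept under optimum greenhouse conditions ~3 weeks, then scored visually on a 0–100% scale.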

[3] = test system: MATIN: Matricaria inodora; experiment: Pre-emergence herbicide efficacy at 80 g/ha, MATIN; assay type: in vivo; settings: scored visually after about 3 weeks
Summary of the method: (§4)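 Pre-emergence soil-surface spray, WP/EC formulation, 0.5% additive, 600 l/ha water volume. Greenhouse, ~3 weeks. Visual % activity vs untreated (100% = dead plants).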

[4] = test system: MATIN: Matricaria inodora; experiment: Pre-emergence herbicide efficacy at 1280 g/ha, MATIN; assay type: in vivo; settings: visual scoring after about 3 weeks vs untreated controls
Summary of the method: (§5)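 Visual scoring after about 3 weeks in the greenhouse, as percent activity relative to untreated pots, where 0% matches controls and 100% means dead plants. Treatment was pre-emergence: WP or EC formulations sprayed onto soil covering the sown seeds, 600 L/ha water plus 0.5% additive.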

SETVI: Setaria viridis [5] = experiment: Pre-emergence herbicide efficacy at 1280 g/ha, SETVI; assay type: in vivo; settings: visual scoring vs untreated controls
Summary of the method: as §5

STEME: Stellaria media = experiment: Pre-emergence herbicide efficacy at 1280 g/ha, STEME; assay type: in vivo; settings: visual scoring vs untreated controls
Summary of the method: as §5

[6] = test system: AMARE: Amaranthus retroflexus; experiment: Post-emergence herbicidal efficacy at 1280 g/ha, AMARE; assay type: in vivo; settings: rated visually after about 3 weeks vs untreated controls, 100% = plants have died, 0% = like control plants
Summary of the method: as §3

[7] = test system: AMARE: Amaranthus retroflexus; experiment: Pre-emergence herbicide efficacy at 80 g/ha, AMARE; assay type: in vivo; settings: scored visually after about 3 weeks
Summary of the method: as §4

VIOTR: Viola tricolor [8] = experiment: Post-emergence herbicidal efficacy at 80 g/ha, VIOTR; assay type: in vivo; settings: visual rating about 3 weeks after treatment vs untreated controls
Summary of the method: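 One-leaf-stage weeds in sandy loam were treated with aqueous suspensions or emulsions (0.5% additive, 600 l/ha) and held in the greenhouse for about 3 weeks before visual rating on a 0–100% scale versus untreated controls.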

POLCO [9] = experiment: Pre-emergence herbicide efficacy at 80 g/ha, POLCO; assay type: in vivo; settings: Polygonum convolvulus, scored visually after about 3 weeks
Summary of the method: as §4

[10] = test system: DIGSA: Digitaria sanguinalis; experiment: Post-emergence herbicidal efficacy at 1280 g/ha, DIGSA; assay type: in vivo; settings: rated visually after about 3 weeks vs untreated controls, 100% = plants have died, 0% = like control plants
Summary of the method: as §3

[11] = test system: ABUTH: Abutilon theophrasti; experiment: Pre-emergence herbicide efficacy at 1280 g/ha, ABUTH; assay type: in vivo; settings: visual scoring after about 3 weeks vs untreated controls
Summary of the method: as §5

[12] = test system: ABUTH: Abutilon theophrasti; experiment: Pre-emergence herbicide efficacy at 80 g/ha, ABUTH; assay type: in vivo; settings: scored visually after about 3 weeks
Summary of the method: as §4

SETVI: Setaria viridis [13] = experiment: Post-emergence herbicidal efficacy at 1280 g/ha, SETVI; assay type: in vivo; settings: visual rating about 3 weeks after treatment vs untreated controls
Summary of the method: as §3

POAAN: Poa annua [14] = experiment: Post-emergence herbicidal efficacy at 1280 g/ha, POAAN; assay type: in vivo; settings: visual rating about 3 weeks after treatment vs untreated controls
Summary of the method: as §3

[15] = test system: ECHCG: Echinochloa crus-galli; experiment: Post-emergence herbicidal efficacy at 1280 g/ha, ECHCG; assay type: in vivo; settings: rated visually after about 3 weeks vs untreated controls, 100% = plants have died, 0% = like control plants
Summary of the method: as §3

KCHSC: Kochia scoparia [16] = experiment: Post-emergence herbicidal efficacy at 1280 g/ha, KCHSC; assay type: in vivo; settings: visual rating about 3 weeks after treatment vs untreated controls
Summary of the method: as §3

[17] = test system: ALOMY: Alopecurus myosuroides; experiment: Pre-emergence herbicide efficacy at 1280 g/ha, ALOMY; assay type: in vivo; settings: visual scoring after about 3 weeks vs untreated controls
Summary of the method: as §5

SETVI: Setaria viridis [18] = experiment: Pre-emergence herbicide efficacy at 80 g/ha, SETVI; assay type: in vivo; settings: scored visually after about 3 weeks
Summary of the method: as §4

[19] = test system: ECHCG: Echinochloa crus-galli; experiment: Pre-emergence herbicide efficacy at 80 g/ha, ECHCG; assay type: in vivo; settings: scored visually after about 3 weeks
Source text: as §1

POAAN: Poa annua [20] = experiment: Pre-emergence herbicide efficacy at 1280 g/ha, POAAN; assay type: in vivo; settings: visual scoring after about 3 weeks vs untreated controls
Summary of the method: as §5

KCHSC: Kochia scoparia [21] = experiment: Post-emergence herbicidal efficacy at 80 g/ha, KCHSC; assay type: in vivo; settings: visual rating about 3 weeks after treatment vs untreated controls
Description: as §2

SMILES	Pre-emergence efficacy against VIOTR in % (VIOTR: Viola tricolor [1]) [%]	Post-emergence efficacy against VERPE (VERPE: Veronica persica) [%]	Pre-emergence efficacy against MATIN in % [3] [%]	Pre-emergence efficacy against MATIN [4] [%]	Pre-emergence efficacy against SETVI in % (SETVI: Setaria viridis [5]) [%]	Pre-emergence efficacy against STEME in % (STEME: Stellaria media) [%]	Post-emergence efficacy at 1280 g/ha against AMARE in % [6] [%]	Pre-emergence efficacy against AMARE in % [7] [%]	Post-emergence efficacy against VIOTR (VIOTR: Viola tricolor [8]) [%]	Pre-emergence efficacy against POLCO in % (POLCO [9]) [%]	Post-emergence efficacy at 1280 g/ha against DIGSA in % [10] [%]	Pre-emergence efficacy against ABUTH [11] [%]	Pre-emergence efficacy against ABUTH in % [12] [%]	Post-emergence efficacy against SETVI (SETVI: Setaria viridis [13]) [%]	Post-emergence efficacy against POAAN (POAAN: Poa annua [14]) [%]	Post-emergence efficacy at 1280 g/ha against ECHCG in % [15] [%]	Post-emergence efficacy against KCHSC (KCHSC: Kochia scoparia [16]) [%]	Pre-emergence efficacy against ALOMY [17] [%]	Pre-emergence efficacy against SETVI in % (SETVI: Setaria viridis [18]) [%]	Pre-emergence efficacy against ECHCG in % [19] [%]	also measured
Fc1cnc(Oc2cccc(Br)c2Cc2ncc(Cl)cn2)nc1 [Example 1-54]	100	100	90	100	100	100	100	100	100	80	90	100	100	100	100	100	100	90	100	100	Post-emergence efficacy against POLCO (POLCO [2]): 80%; Pre-emergence efficacy against POAAN (POAAN: Poa annua [20]): 100%
Clc1cnc(Cc2c(Cl)cccc2Oc2ncc(Cl)cn2)nc1 [Example 1-56]	100	90	100	100	100	100	90	100	100	90	90	100	100	90	90	90	90	100	100	80	Post-emergence efficacy against POLCO (POLCO [2]): 80%; Post-emergence efficacy against KCHSC (KCHSC: Kochia scoparia [21]): 80%; Pre-emergence efficacy against POAAN (POAAN: Poa annua [20]): 100%
N#Cc1cccc(Oc2ncc(F)cn2)c1Cc1ncc(Cl)cn1 [Example 1-59]	100	100	100	100	100	100	100	100	100	90	100	100	100	90	100	90	100	100	100	100	Post-emergence efficacy against KCHSC (KCHSC: Kochia scoparia [21]): 90%; Pre-emergence efficacy against POAAN (POAAN: Poa annua [20]): 100%
FC(F)c1cc(-c2ccccc2Cc2ncc(Cl)cn2)on1 [Example 1-133]	80	100	80	100	100	100	100	100	100	80	100	100	100	100	100	100	100	100	100	80	Post-emergence efficacy against POLCO (POLCO [2]): 100%; Post-emergence efficacy against KCHSC (KCHSC: Kochia scoparia [21]): 100%; Pre-emergence efficacy against POAAN (POAAN: Poa annua [20]): 100%
